Reference: US20060167019A1, “Fungicidal mixtures based on a trizolopyrimidine derivative” (priority 2003, published 2006)

Test system: Plasmopara viticola
Experiment: Activity against peronospora of grapevines caused by Plasmopara viticola (protective spray on potted vines)
Format: in vivo
Conditions: individual active compound, potted vines cultivar Müller-Thurgau, untreated control 84% infection
Procedure: The active compounds, separately or jointly, were prepared as a stock solution comprising 0.25% by weight of active compound in acetone or DMSO. 1% by weight of the emulsifier Uniperol® EL (wetting agent having emulsifying and dispersant action based on ethoxylated alkylphenols) was added to this solution, and the mixture was diluted with water to the desired concentration.
Leaves of potted vines of the cultivar “Müller-Thurgau” were sprayed to runoff point with an aqueous suspension having the concentration of active compound stated below. The next day, the undersides of the leaves were inoculated with an aqueous zoospore suspension of Plasmopara viticola. The grapevines were then initially placed in a water-vapor-saturated chamber at 24° C. for 48 hours and then in a greenhouse at 20-30° C. for 5 days. After this period of time, the plants were again placed in a humid chamber for 16 hours to promote sporangiophore eruption. The extent of the development of the disease on the undersides of the leaves was then determined visually.
The visually determined percentages of infected leaf areas were converted into efficacies in % of the untreated control:
The efficacy (E) is calculated as follows using Abbot's formula: E=(1−α/β)−100 α corresponds to the fungicidal infection of the treated plants in % and β corresponds to the fungicidal infection of the untreated (control) plants in %
An efficacy of 0 means that the infection level of the treated plants corresponds to that of the untreated control plants; an efficacy of 100 means that the treated plants are not infected.
The expected efficacies of mixtures of active compounds were determined using Colby's formula (Colby, S. R. “Calculating synergistic and antagonistic responses of herbicide combinations”, Weeds, 15, 20-22, 1967) and compared with the observed efficacies.
Colby's formula: E=x+y−x·y/100 • E expected efficacy, expressed in % of the untreated control, when using the mixture of the active compounds A and B at the concentrations a and b • x efficacy, expressed in % of the untreated control, when using the active compound A at the concentration a • y efficacy, expressed in % of the untreated control, when using the active compound B at the concentration b

Row | SMILES | Efficacy in % of the untreated control (0.25 ppm in the spray liquor) | Efficacy in % of the untreated control (1 ppm in the spray liquor)
1 | C[C@H](Nc1c(-c2c(F)cc(F)cc2F)c(Cl)nc2ncnn12)C(F)(F)F [Comparison B] | 5% | 17%
2 | CC1CCN(c2c(-c3c(F)cccc3Cl)c(Cl)nc3ncnn23)CC1 [Comparison A] | 0% | 0%
3 | CC1CCN(c2c(-c3c(F)cc(F)cc3F)c(Cl)nc3ncnn23)CC1 [I, 5-chloro-7-(4-methylpiperidin-1-yl)-6-(2,4,6-trifluorophenyl)-[1,2,4]triazolo[1,5-a]pyrimidine] | 0% | 17%
